Assay results reported in paper PMC3433420 (PLoS ONE, 2012).
Residues, ends and D or L forms follow the SMILES beside them.

Columns and labels:
Assay in all cases: In-house protein microarrays (with or without 5 mM DTT), protein named per line
Assay type in all cases: binding
[1] = target: T1, SH2 and PTB domains (Homo sapiens, UniProt P27986)
T1 construct: thioredoxin; made in house; host or cells: BL21(DE3)pLysS E. coli
How it was run: (§1)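 Recombinant domains (~40 µM) spotted in duplicate on aldehyde slides, quenched 1 h at room temperature in HEPES/KCl/Tween-20 buffer pH 7.8 with 5 mM DTT and 1% BSA, then probed with rhodamine-labeled peptide. Thioredoxin-subtracted mean fluorescence fitted for KD.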

[2] = target: T2, SH2 and PTB domains (Homo sapiens, UniProt P20936)
T2 construct: thioredoxin; made in house; host or cells: BL21(DE3)pLysS E. coli
T2 sequence (P20936 1-1047): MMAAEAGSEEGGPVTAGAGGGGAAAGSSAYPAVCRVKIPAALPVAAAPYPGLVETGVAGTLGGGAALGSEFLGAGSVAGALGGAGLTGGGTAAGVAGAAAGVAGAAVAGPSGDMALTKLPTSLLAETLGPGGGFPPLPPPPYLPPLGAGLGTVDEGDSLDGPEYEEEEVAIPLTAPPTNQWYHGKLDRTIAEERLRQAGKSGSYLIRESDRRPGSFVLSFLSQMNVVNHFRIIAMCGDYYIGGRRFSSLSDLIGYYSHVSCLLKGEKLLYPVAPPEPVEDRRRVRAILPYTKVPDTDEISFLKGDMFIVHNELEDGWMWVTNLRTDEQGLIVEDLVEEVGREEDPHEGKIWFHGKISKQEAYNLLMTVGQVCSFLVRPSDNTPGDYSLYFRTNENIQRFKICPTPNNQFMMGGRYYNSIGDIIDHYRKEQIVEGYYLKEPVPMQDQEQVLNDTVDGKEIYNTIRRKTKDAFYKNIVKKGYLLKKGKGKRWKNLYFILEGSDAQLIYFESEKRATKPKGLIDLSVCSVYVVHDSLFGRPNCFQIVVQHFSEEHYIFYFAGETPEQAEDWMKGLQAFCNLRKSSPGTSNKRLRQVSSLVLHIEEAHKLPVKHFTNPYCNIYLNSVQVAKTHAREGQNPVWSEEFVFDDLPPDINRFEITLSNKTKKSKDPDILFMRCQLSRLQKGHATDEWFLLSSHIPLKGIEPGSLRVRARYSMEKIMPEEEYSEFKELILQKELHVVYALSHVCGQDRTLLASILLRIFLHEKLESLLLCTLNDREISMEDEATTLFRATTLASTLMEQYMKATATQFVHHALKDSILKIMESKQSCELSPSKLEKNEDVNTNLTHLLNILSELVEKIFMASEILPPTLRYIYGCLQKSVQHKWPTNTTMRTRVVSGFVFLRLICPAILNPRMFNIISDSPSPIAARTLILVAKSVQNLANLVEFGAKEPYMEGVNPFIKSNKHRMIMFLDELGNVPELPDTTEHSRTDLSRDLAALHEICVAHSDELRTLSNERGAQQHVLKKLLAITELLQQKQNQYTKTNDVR
How it was run: as §1

[3] = target: T3, SH2 and PTB domains (Homo sapiens, UniProt P78314); conditions: protein SH3BP2
T3 construct: thioredoxin; made in house; host or cells: BL21(DE3)pLysS E. coli
T3 sequence (P78314 1-561): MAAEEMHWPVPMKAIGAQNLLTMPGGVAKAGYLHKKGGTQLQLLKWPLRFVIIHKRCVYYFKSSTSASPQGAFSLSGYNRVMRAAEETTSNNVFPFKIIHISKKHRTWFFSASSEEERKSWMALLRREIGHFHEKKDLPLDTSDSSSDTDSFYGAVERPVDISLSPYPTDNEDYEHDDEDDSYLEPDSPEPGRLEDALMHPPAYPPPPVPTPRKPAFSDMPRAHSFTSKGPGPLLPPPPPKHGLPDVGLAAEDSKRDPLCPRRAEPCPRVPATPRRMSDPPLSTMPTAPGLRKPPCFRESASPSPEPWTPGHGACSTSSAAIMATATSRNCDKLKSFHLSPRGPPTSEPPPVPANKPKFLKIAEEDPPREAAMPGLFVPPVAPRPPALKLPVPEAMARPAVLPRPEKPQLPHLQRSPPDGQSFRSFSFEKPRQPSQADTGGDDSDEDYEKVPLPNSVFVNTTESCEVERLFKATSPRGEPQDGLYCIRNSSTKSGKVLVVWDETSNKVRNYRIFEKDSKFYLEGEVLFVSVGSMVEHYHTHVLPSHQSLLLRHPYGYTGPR
How it was run: as §1

[4] = target: T4, SH2 and PTB domains (Homo sapiens, UniProt P46109); conditions: protein CRKL
T4 construct: thioredoxin; made in house; host or cells: BL21(DE3)pLysS E. coli
How it was run: as §1

[5] = protein RASA1-NC, PM assay replicate # 39337, array fabrication # 39329
[6] = PM assay replicate # 39307, array fabrication # 39286
[7] = PM assay replicate # 39337, array fabrication # 39329
[8] = PM assay replicate # 39351, array fabrication # 39336
[9] = PM assay replicate # 39352, array fabrication # 39336

T4 sequence (P46109 whole entry, the tested form may be a part): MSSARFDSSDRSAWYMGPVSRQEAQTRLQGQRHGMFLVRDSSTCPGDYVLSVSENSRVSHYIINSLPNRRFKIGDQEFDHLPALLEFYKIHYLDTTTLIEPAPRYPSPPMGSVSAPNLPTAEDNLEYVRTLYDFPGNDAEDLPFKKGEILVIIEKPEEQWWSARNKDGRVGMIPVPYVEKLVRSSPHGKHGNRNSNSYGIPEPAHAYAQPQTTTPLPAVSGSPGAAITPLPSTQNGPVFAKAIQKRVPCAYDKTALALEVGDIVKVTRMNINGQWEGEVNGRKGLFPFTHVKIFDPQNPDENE
T1 sequence (P27986 whole entry, the tested form may be a part): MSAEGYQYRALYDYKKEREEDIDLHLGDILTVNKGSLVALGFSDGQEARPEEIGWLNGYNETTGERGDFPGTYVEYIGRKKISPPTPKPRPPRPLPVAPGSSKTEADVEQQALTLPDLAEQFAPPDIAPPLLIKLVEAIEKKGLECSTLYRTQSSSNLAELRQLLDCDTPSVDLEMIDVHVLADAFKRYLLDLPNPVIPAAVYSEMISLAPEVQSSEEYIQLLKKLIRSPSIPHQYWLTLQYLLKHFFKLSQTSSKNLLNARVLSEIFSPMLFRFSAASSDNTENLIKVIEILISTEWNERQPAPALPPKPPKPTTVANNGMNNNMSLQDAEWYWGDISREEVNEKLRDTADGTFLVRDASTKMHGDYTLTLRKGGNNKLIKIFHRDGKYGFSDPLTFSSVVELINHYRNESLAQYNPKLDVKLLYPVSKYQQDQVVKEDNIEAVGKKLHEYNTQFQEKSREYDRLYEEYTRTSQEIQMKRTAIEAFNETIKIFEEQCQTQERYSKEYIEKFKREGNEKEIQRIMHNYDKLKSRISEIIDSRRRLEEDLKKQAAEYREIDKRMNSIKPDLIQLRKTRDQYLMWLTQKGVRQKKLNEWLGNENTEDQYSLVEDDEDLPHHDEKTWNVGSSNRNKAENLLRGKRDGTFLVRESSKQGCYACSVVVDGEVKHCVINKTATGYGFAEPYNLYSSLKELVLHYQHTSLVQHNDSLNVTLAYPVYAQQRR

| Structure (SMILES) | Kd ([1]; protein PIK3R1-NC, PM assay replicate # 39307, array fabrication # 39286) [nM] | Kd ([1]; protein PIK3R1-NC, PM assay replicate # 39337, array fabrication # 39329) [nM] | Kd ([2]; protein RASA1-N, PM assay replicate # 39307, array fabrication # 39286) [nM] | Kd [2, 5] [nM] | Kd [3, 6] [nM] | Kd [3, 7] [nM] | Kd [3, 8] [nM] | Kd [3, 9] [nM] | Kd [4, 6] [nM] | Kd ([1]; protein PIK3R1-N, PM assay replicate # 39336, array fabrication # 39329) [nM] | Kd ([1]; protein PIK3R1-N, PM assay replicate # 39337, array fabrication # 39329) [nM] | Kd ([2]; protein RASA1-C, PM assay replicate # 39337, array fabrication # 39329) [nM] | Kd ([2]; protein RASA1-N, PM assay replicate # 39336, array fabrication # 39329) [nM] | Kd ([2]; protein RASA1-N, PM assay replicate # 39337, array fabrication # 39329) [nM] | Kd ([2]; protein RASA1-NC, PM assay replicate # 39336, array fabrication # 39329) [nM] | Kd ([2]; protein RASA1-NC, PM assay replicate # 39603, array fabrication # 39392) [nM] | Kd ([4]; PM assay replicate # 39336, array fabrication # 39329) [nM] | Kd [4, 7] [nM] |
| --- | --- | --- | --- | --- | --- | --- | --- | --- | --- | --- | --- | --- | --- | --- | --- | --- | --- | --- |
| CCN(CC)c1ccc2c(-c3ccc(C(=O)N[C@@H](CC(N)=O)C(=O)NCC(=O)N4CCC[C@H]4C(=O)N4CCC[C@H]4C(=O)N[C@@H](CCCCN)C(=O)N[C@@H](C)C(=O)N[C@@H](CCC(=O)O)C(=O)N[C@@H](CC(=O)O)C(=O)N[C@@H](CCC(=O)O)C(=O)N[C@@H](Cc4ccc(OP(=O)(O)O)cc4)C(=O)N[C@H](C(=O)N[C@@H](CC(N)=O)C(=O)N[C@@H](CCC(=O)O)C(=O)N4CCC[C@H]4C(=O)N[C@@H](CC(C)C)C(=O)N[C@@H](Cc4ccc(O)cc4)C(=O)N[C@@H](CC(C)C)C(=O)N[C@@H](CC(=O)O)C(=O)O)C(C)C)cc3C(=O)[O-])c3ccc(=[N+](CC)CC)cc-3oc2c1 [ErbB4 1202 (18-mer)] (HELM PEPTIDE1{[CCN(CC)c1ccc2c(-c3ccc(C(=O)[*:2])cc3C(=O)[O-])c3ccc(=[N+](CC)CC)cc-3oc2c1].N.G.P.P.K.A.E.D.E.[O=C([C@H](Cc1ccc(OP(=O)(O)O)cc1)N[*:1])[*:2]].V.N.E.P.L.Y.L.D}$$$$V2.0) | 170 | 540 | 660 | 8560 | 500 | 2060 | 1610 | 15930 |  |  |  |  |  |  |  |  |  |  |
| CC[C@H](C)[C@H](NC(=O)[C@H](CC(N)=O)NC(=O)[C@H](CC(N)=O)NC(=O)[C@H](CCCCN)NC(=O)[C@H](CC(C)C)NC(=O)[C@H](Cc1ccc(OP(=O)(O)O)cc1)NC(=O)[C@H](CCC(=O)O)NC(=O)[C@H](C)NC(=O)[C@H](CCCCN)NC(=O)CNC(=O)[C@H](CC(C)C)NC(=O)[C@@H](NC(=O)[C@H](CC(N)=O)NC(=O)[C@H](C)NC(=O)[C@@H](N)Cc1ccccc1)[C@@H](C)O)C(=O)N[C@@H](CC(C)C)C(=O)N[C@@H](CO)C(=O)N[C@@H](CC(=O)O)C(=O)O [ErbB4 pY1221 (18-mer)] (HELM PEPTIDE1{F.A.N.T.L.G.K.A.E.[O=C([C@H](Cc1ccc(OP(=O)(O)O)cc1)N[*:1])[*:2]].L.K.N.N.I.L.S.D}$$$$V2.0) |  |  |  |  | 1240 |  | 2360 | 10860 | 110 |  |  |  |  |  |  |  |  |  |
| CC(C)C[C@H](NC(=O)[C@@H]1CCCN1C(=O)[C@H](C)NC(=O)[C@@H](NC(=O)[C@H](Cc1ccc(OP(=O)(O)O)cc1)NC(=O)CNC(=O)[C@H](CC(=O)O)NC(=O)[C@@H](NC(=O)[C@@H](N)CCC(=O)O)[C@@H](C)O)C(C)C)C(=O)N[C@H](C(=O)N[C@@H](CS)C(=O)N[C@@H](CO)C(=O)N[C@@H](CC(=O)O)C(=O)O)[C@@H](C)O [ErbB2 pY1127] |  |  |  | 30 |  |  |  |  |  | 19 | 220 | 1210 | 590 | 110 | 120 | 60 | 4800 | 640 |
